IC50 data for 25 compounds are collected here from patent publication US20240158392A1 (Janssen Biotech, Inc., priority 2021, published 2024).

The assay addresses SIK2 (Homo sapiens, UniProt Q9H0K1). The assay can be described thus: SIK2 Enzymatic Assay High Version 2 (High ATP). The class given is biochemical. A digest of the protocol: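 At room temperature, enzyme (6 nM, 2× final) was preincubated with compound for 30 min, then 6 mM ATP and 400 μM HDAC5tide (both 2× final) were added for 2 h. ADP formed was measured by ADP-Glo Max (2 h reagent, 1 h detection) using luminescence.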

SIK2, sequence (Q9H0K1 whole entry, species assumed): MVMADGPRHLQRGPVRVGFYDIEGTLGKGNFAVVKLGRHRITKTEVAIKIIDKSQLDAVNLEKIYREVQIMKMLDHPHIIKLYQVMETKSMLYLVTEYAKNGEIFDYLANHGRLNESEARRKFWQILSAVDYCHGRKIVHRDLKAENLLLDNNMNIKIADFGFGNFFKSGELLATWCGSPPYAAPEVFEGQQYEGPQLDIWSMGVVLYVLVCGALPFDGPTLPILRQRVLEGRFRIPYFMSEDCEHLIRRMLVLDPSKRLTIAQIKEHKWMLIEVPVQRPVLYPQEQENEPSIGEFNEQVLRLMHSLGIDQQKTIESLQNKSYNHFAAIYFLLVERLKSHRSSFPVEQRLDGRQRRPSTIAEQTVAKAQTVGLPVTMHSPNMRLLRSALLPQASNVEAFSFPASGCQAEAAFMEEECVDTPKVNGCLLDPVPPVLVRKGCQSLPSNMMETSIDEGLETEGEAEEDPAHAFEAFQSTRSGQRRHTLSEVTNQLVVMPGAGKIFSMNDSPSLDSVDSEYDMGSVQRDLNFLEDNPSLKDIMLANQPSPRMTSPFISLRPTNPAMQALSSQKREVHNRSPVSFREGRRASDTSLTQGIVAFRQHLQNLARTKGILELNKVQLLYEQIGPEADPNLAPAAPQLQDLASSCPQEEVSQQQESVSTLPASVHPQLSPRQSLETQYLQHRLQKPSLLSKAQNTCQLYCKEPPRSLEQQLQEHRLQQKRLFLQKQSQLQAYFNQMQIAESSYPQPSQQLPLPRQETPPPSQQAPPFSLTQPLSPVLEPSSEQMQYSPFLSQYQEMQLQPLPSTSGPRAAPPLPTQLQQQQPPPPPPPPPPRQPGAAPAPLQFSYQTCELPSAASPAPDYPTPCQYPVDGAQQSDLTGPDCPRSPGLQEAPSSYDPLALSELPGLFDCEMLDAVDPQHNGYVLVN

As usually defined, the IC50 is the midpoint of a concentration-inhibition curve. High values mean weaker potency in that assay, low ones greater potency in that assay. The compound `Cc1cc(-c2ccn3nc(Nc4cc(C(F)(F)F)n(C)n4)cc3c2)c(O[C@H]2C[C@H]3COC[C@@H](C2)N3)cn1` [Example 379, 5-[2-methyl-5-[[(1S,5R,7s)-3-oxa-9-azabicyclo[3.3.1]nonan-7-yl]oxy]-4-pyridyl]-N-[1-methyl-5-(trifluoromethyl)pyrazol-3-yl]pyrazolo[1,5-a]pyridin-2-amine] yielded an IC50 of 1.25 nM.
In the case of `Cc1cc(-c2ccn3nc(Nc4cn(C)nn4)cc3c2)c(O[C@H]2C[C@H]3COC[C@@H](C2)N3)cn1` [Example 380, 5-[2-methyl-5-[[(1R,5S,7s)-3-oxa-9-azabicyclo[3.3.1]nonan-7-yl]oxy]-4-pyridyl]-N-(1-methyltriazol-4-yl)pyrazolo[1,5-a]pyridin-2-amine], the IC50 is < 0.847 nM.
The result for `Cc1cnc(Nc2cc3cc(-c4cc(C)ncc4O[C@H]4C[C@H]5COC[C@@H](C4)N5)ccn3n2)cn1` [Example 381, 5-[2-methyl-5-[[(1S,5R,7s)-3-oxa-9-azabicyclo[3.3.1]nonan-7-yl]oxy]-4-pyridyl]-N-(5-methylpyrazin-2-yl)pyrazolo[1,5-a]pyridin-2-amine] reads < 0.847 nM.
`Cc1cc(-c2ccn3nc(Nc4cc(C)nc(C)n4)cc3c2)c(O[C@H]2C[C@H]3COC[C@@H](C2)N3)cn1` [Example 382, N-(2,6-dimethylpyrimidin-4-yl)-5-[2-methyl-5-[[(1S,5R,7s)-3-oxa-9-azabicyclo[3.3.1]nonan-7-yl]oxy]-4-pyridyl]pyrazolo[1,5-a]pyridin-2-amine]: the IC50 is < 0.847 nM.
The result for `Cc1cc(-c2ccn3nc(Nc4ccc(C(=O)N(C)C)cn4)cc3c2)c(O[C@H]2C[C@H]3COC[C@@H](C2)N3)cn1` [Example 383, N,N-dimethyl-6-[[5-[2-methyl-5-[[(1S,5R,7s)-3-oxa-9-azabicyclo[3.3.1]nonan-7-yl]oxy]-4-pyridyl]pyrazolo[1,5-a]pyridin-2-yl]amino]pyridine-3-carboxamide] reads 0.947 nM; that for `CCNC(=O)c1ccc(Nc2cc3cc(-c4cc(C)ncc4O[C@H]4C[C@H]5COC[C@@H](C4)N5)ccn3n2)nc1` [Example 384, N-ethyl-6-[[5-[2-methyl-5-[[(1S,5R,7s)-3-oxa-9-azabicyclo[3.3.1]nonan-7-yl]oxy]-4-pyridyl]pyrazolo[1,5-a]pyridin-2-yl]amino]pyridine-3-carboxamide], 0.889 nM.
With `CCNC(=O)c1ccc(Nc2cc3cc(-c4cc(C)ncc4O[C@H]4C[C@H]5COC[C@@H](C4)N5)ccn3n2)nn1` [Example 385, N-ethyl-6-[[5-[2-methyl-5-[[(1S,5R,7s)-3-oxa-9-azabicyclo[3.3.1]nonan-7-yl]oxy]-4-pyridyl]pyrazolo[1,5-a]pyridin-2-yl]amino]pyridazine-3-carboxamide], the half-maximal inhibitory concentration (IC50) was determined as 1.2 nM.
Under `CCNC(=O)c1cnc(Nc2cc3cc(-c4cc(C)ncc4O[C@H]4C[C@H]5COC[C@@H](C4)N5)ccn3n2)cn1` [Example 386, N-ethyl-5-[[5-[2-methyl-5-[[(1S,5R,7s)-3-oxa-9-azabicyclo[3.3.1]nonan-7-yl]oxy]-4-pyridyl]pyrazolo[1,5-a]pyridin-2-yl]amino]pyrazine-2-carboxamide] stands 1.31 nM; under `COCCNC(=O)c1ccc(Nc2cc3cc(-c4cc(C)ncc4O[C@H]4C[C@H]5COC[C@@H](C4)N5)ccn3n2)nc1` [Example 387, N-(2-methoxyethyl)-6-[[5-[2-methyl-5-[[(1S,5R,7s)-3-oxa-9-azabicyclo[3.3.1]nonan-7-yl]oxy]-4-pyridyl]pyrazolo[1,5-a]pyridin-2-yl]amino]pyridine-3-carboxamide], 1 nM.
`Cc1cc(-c2ccn3nc(Nc4ccc(C(=O)NC5CCOCC5)cn4)cc3c2)c(O[C@H]2C[C@H]3COC[C@@H](C2)N3)cn1` [Example 388, 6-[[5-[2-methyl-5-[[(1S,5R,7s)-3-oxa-9-azabicyclo[3.3.1]nonan-7-yl]oxy]-4-pyridyl]pyrazolo[1,5-a]pyridin-2-yl]amino]-N-tetrahydropyran-4-yl-pyridine-3-carboxamide] had a 50% inhibitory concentration (IC50) of 1.03 nM.
Compound `Cc1cc(-c2ccn3nc(Nc4ccc(C(=O)NCC(C)(C)C#N)cn4)cc3c2)c(O[C@H]2C[C@H]3COC[C@@H](C2)N3)cn1` [Example 389, N-(2-cyano-2-methyl-propyl)-6-[[5-[2-methyl-5-[[(1S,5R,7s)-3-oxa-9-azabicyclo[3.3.1]nonan-7-yl]oxy]-4-pyridyl]pyrazolo[1,5-a]pyridin-2-yl]amino]pyridine-3-carboxamide] had an IC50 of 1.02 nM.
`Cc1cc(-c2ccn3nc(Nc4cnc(C(=O)NCC(C)(C)O)cn4)cc3c2)c(O[C@H]2C[C@H]3COC[C@@H](C2)N3)cn1` [Example 390, N-(2-hydroxy-2-methyl-propyl)-5-[[5-[2-methyl-5-[[(1S,5R,7s)-3-oxa-9-azabicyclo[3.3.1]nonan-7-yl]oxy]-4-pyridyl]pyrazolo[1,5-a]pyridin-2-yl]amino]pyrazine-2-carboxamide]: the IC50 was > 50000 nM.
Under `Cc1cnc(Nc2cc3cc(-c4cc(C)ncc4O[C@H]4C[C@H]5COC[C@@H](C4)N5)ccn3n2)nc1` [Example 391, 5-(5-(((1R,5S,7s)-3-oxa-9-azabicyclo[3.3.1]nonan-7-yl)oxy)-2-methylpyridin-4-yl)-N-(5-methylpyrimidin-2-yl)pyrazolo[1,5-a]pyridin-2-amine] stands < 0.847 nM; under `Cc1cc(-c2ccn3nc(Nc4cnccn4)cc3c2)c(O[C@H]2C[C@H]3COC[C@@H](C2)N3)cn1` [Example 392, 5-[2-methyl-5-[[(1S,5R,7s)-3-oxa-9-azabicyclo[3.3.1]nonan-7-yl]oxy]-4-pyridyl]-N-pyrazin-2-yl-pyrazolo[1,5-a]pyridin-2-amine], 1.07 nM; under `Cc1cc(-c2ccn3nc(Nc4ccc(S(C)(=O)=O)cn4)cc3c2)c(O[C@H]2C[C@H]3COC[C@@H](C2)N3)cn1` [Example 393, 5-[2-methyl-5-[[(1R,5S,7s)-3-oxa-9-azabicyclo[3.3.1]nonan-7-yl]oxy]-4-pyridyl]-N-(5-methylsulfonyl-2-pyridyl)pyrazolo[1,5-a]pyridin-2-amine], 1.31 nM.
Under `Cc1cc(-c2ccn3nc(Nc4cccnn4)cc3c2)c(O[C@H]2C[C@H]3COC[C@@H](C2)N3)cn1` [Example 394, 5-[2-methyl-5-[[(1R,5S,7s)-3-oxa-9-azabicyclo[3.3.1]nonan-7-yl]oxy]-4-pyridyl]-N-pyridazin-3-yl-pyrazolo[1,5-a]pyridin-2-amine] stands < 0.847 nM.
As to `Cc1cc(-c2ccn3nc(Nc4ccncn4)cc3c2)c(O[C@H]2C[C@H]3COC[C@@H](C2)N3)cn1` [Example 395, 5-[2-methyl-5-[[(1R,5S,7s)-3-oxa-9-azabicyclo[3.3.1]nonan-7-yl]oxy]-4-pyridyl]-N-pyrimidin-4-yl-pyrazolo[1,5-a]pyridin-2-amine], the half-maximal inhibitory concentration (IC50) stood at 0.851 nM.
Under `Cc1cc(Nc2cc3cc(-c4cc(C)ncc4O[C@H]4C[C@H]5COC[C@@H](C4)N5)ccn3n2)ncn1` [Example 396, 5-[2-methyl-5-[[(1R,5S,7s)-3-oxa-9-azabicyclo[3.3.1]nonan-7-yl]oxy]-4-pyridyl]-N-(6-methylpyrimidin-4-yl)pyrazolo[1,5-a]pyridin-2-amine] stands 1.1 nM; under `Cc1cc(-c2ccn3nc(Nc4cc(F)n(C)n4)cc3c2)c(O[C@H]2C[C@H]3COC[C@@H](C2)N3)cn1` [Example 397, N-(5-fluoro-1-methyl-pyrazol-3-yl)-5-[2-methyl-5-[[(1S,5R,7s)-3-oxa-9-azabicyclo[3.3.1]nonan-7-yl]oxy]-4-pyridyl]pyrazolo[1,5-a]pyridin-2-amine], 1.33 nM; under `Cc1cc(-c2ccn3nc(Nc4cn(C)nc4F)cc3c2)c(O[C@H]2C[C@H]3COC[C@@H](C2)N3)cn1` [Example 398, N-(3-fluoro-1-methyl-pyrazol-4-yl)-5-[2-methyl-5-[[(1S,5R,7s)-3-oxa-9-azabicyclo[3.3.1]nonan-7-yl]oxy]-4-pyridyl]pyrazolo[1,5-a]pyridin-2-amine], < 0.847 nM.
Under `Cc1cc(-c2ccn3nc(Nc4nn(C)cc4F)cc3c2)c(O[C@H]2C[C@H]3COC[C@@H](C2)N3)cn1` [Example 399, N-(4-fluoro-1-methyl-pyrazol-3-yl)-5-[2-methyl-5-[[(1S,5R,7s)-3-oxa-9-azabicyclo[3.3.1]nonan-7-yl]oxy]-4-pyridyl]pyrazolo[1,5-a]pyridin-2-amine] stands 44.2 nM.
`Cc1cc(-c2ccn3nc(NC(=O)C4CC4)c(C)c3c2)c(O[C@H]2C[C@H]3COC[C@@H](C2)N3)cn1` [Example 400, N-[3-methyl-5-[2-methyl-5-[[(1S,5R,7s)-3-oxa-9-azabicyclo[3.3.1]nonan-7-yl]oxy]-4-pyridyl]pyrazolo[1,5-a]pyridin-2-yl]cyclopropanecarboxamide] came in with an IC50 of 0.912 nM.
Regarding `Cc1cc(-c2ccn3nc(Nc4ccc(=O)n(C)n4)cc3c2)c(O[C@H]2C[C@H]3COC[C@@H](C2)N3)cn1` [Example 401, 2-methyl-6-[[5-[2-methyl-5-[[(1S,5R,7s)-3-oxa-9-azabicyclo[3.3.1]nonan-7-yl]oxy]-4-pyridyl]pyrazolo[1,5-a]pyridin-2-yl]amino]pyridazin-3-one], inhibition was half-maximal at 16.1 nM (IC50).
The result for `Cc1cc(-c2ccn3nc(Nc4ncccn4)cc3c2)c(O[C@H]2C[C@H]3COC[C@@H](C2)N3)cn1` [Example 402, 5-[2-methyl-5-[[(1S,5R,7s)-3-oxa-9-azabicyclo[3.3.1]nonan-7-yl]oxy]-4-pyridyl]-N-pyrimidin-2-yl-pyrazolo[1,5-a]pyridin-2-amine] reads 98.4 nM.
Under `Cc1cc(-c2ccn3nc(Nc4cc(C(F)(F)F)nn4C)cc3c2)c(O[C@H]2C[C@H]3COC[C@@H](C2)N3)cn1` [Example 403, 5-(5-(((1R,5S,7s)-3-oxa-9-azabicyclo[3.3.1]nonan-7-yl)oxy)-2-methylpyridin-4-yl)-N-(1-methyl-3-(trifluoromethyl)-1H-pyrazol-5-yl)pyrazolo[1,5-a]pyridin-2-amine] stands 14.3 nM.
